Experimental data reported in ChEMBL document CHEMBL5053488, “Motobamide, an Antitrypanosomal Cyclic Peptide from a Leptolyngbya sp. Marine Cyanobacterium” (J Nat Prod, 2021).
The source made the active and inactive calls. No cut-off for these calls is given here. Numbered stars: 1 amine (or outer) side, 2 acyl side, 3 side chain; on linkers, the order of the positions; unused ones are H or OH. Square brackets hold non-standard residues; d marks the D form. Peptide text beside a SMILES is read from it. X1 = CC(C)=CC[C@@]12C[C@@H](C(=O)[*:2])N([*:1])[C@@H]1Nc1ccccc12

Experiments:
[1] = system: HL-60; assay: Growth inhibition of human HL-60 cells at 10 uM incubated for 72 hrs by MTT assay; type: functional, cell-based
[2] = Ratio of IC50 for cytotoxicity against human WI-38 cells to IC50 for antitrypanosomal activity against Trypanosoma brucei rhodesiense IL-1501
[3] = system: WI-38; assay: Cytotoxicity against human WI-38 cells assessed as cell growth inhibition measured after 72 hrs by MTT assay; type: cell-based; conditions: WI-38, 72 h
[4] = system: HeLa; assay: Growth inhibition of human HeLa cells at 10 uM incubated for 72 hrs by MTT assay; type: functional, cell-based
[5] = system: Trypanosoma brucei rhodesiense; assay: Antitrypanosomal activity against Trypanosoma brucei rhodesiense IL-1501 assessed as parasite growth inhibition incubated for 69 hrs by AlamarBlue assay; type: functional, organism-based; conditions: IL-1501, 69 h

## CSCC[C@@H]1NC(=O)[C@@H]2CCCN2C(=O)[C@H](C(C)C)NC(=O)[C@@H]2CCCN2C(=O)[C@@H]2CCCN2C(=O)[C@H](CC(C)C)NC(=O)[C@@H]2C[C@@]3(CC=C(C)C)c4ccccc4N[C@H]3N2C(=O)[C@@H]2CCCN2C(=O)[C@H](C(C)C)NC(=O)[C@H](CC(C)C)NC1=O (cyclo(LPPVPMLVP[X1]))
[1]
  growth inhibition (GI): inactive
[2]
  Ratio IC50: >20
[3]
  IC50: 55 µM
[4]
  growth inhibition (GI): inactive
[5]
  IC50: 2300 nM
